Read-outs that look alike come from different tables or passages of the source.

The values below come from patent US11000491B2, “Amino-aryl-benzamide compounds and methods of use thereof” (HEPANOVA, INC., priority 2017, dated 2021).

Common to all, as to assay type: cell-based
The test system of assay [1] is SREBP-1. Description: SREBP-1 expression in cultured primary human hepatocytes. To be noted: procedure of Example 6, read-out: SREBP-1 mRNA inhibition (EC50). In a few lines:
(§1)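 Primary human hepatocytes in culture exposed to a range of HPN-01 derivative concentrations; SREBP-1 and SREBP-2 mRNA expression then measured to assess inhibition.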

In assay [2] the test system is SREBP-2. As to the kind of experiment: SREBP-2 expression in cultured primary human hepatocytes. The following applies: procedure of Example 6, read-out: SREBP-2 mRNA inhibition (EC50). Summed up: as §1
Assay [3] has as its system Huh7 cells. As to the kind of experiment: LD content in Huh7 cells pre-treated with insulin, Oil-Red-O staining, absorbance OD 540 nm. The following applies: procedure of Example 3, read-out: LD content inhibition (EC50). In a few lines:
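Huh7 cells, mock-treated or pre-treated with 1 mM insulin, were then exposed to compound at the indicated amounts. Lipid droplets stained with Oil Red O and quantified by absorbance at OD 540 nm.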

[4] abbreviates: Homo sapiens, Huh-7, Huh7 cells.

One may read the EC50 as the concentration giving half of the maximal effect. Consider `CCCC(=O)OCC#Cc1cc(C(N)=O)c(N)c(-c2ccc(S(N)(=O)=O)cc2)c1` [HPN-01224, 3-(6-amino-5-carbamoyl-4′-sulfamoyl-[1,1′-biphenyl]-3-yl)prop-2-yn-1-yl butyrate], for which the concentration giving a half-maximal response (EC50) in assay [1] (Homo sapiens, Hepatocyte) amounted to 1580 nM; in assay [2] (Homo sapiens, Hepatocyte) it was 2570 nM; in assay [3] (setting [4]), 580 nM.

In the case of “furan-2-ylmethyl (E)-3-(6-amino-5-carbamoyl-4′-sulfamoyl-[1,1′-biphenyl]-3-yl)acrylate [HPN-01124]”, the results for the concentration for a half-maximal effect (EC50) in assay [1], in assay [2] and in assay [3] (Huh7 cells) were 1860 nM, 3250 nM and 670 nM, respectively.

With `Nc1c(C(=O)Nc2cccc(F)c2)cc(-c2ccc(Cl)cc2)cc1-c1ccc(S(N)(=O)=O)cc1` [HPN-01613, 4′-amino-4-chloro-N-(3-fluorophenyl)-4″-sulfamoyl-[1,1′:3′,1″-terphenyl]-5′-carboxamide], the EC50 was 1550 nM in assay [1] (Homo sapiens, Hepatocyte); 2200 nM in assay [2] (Homo sapiens, Hepatocyte); 1370 nM in assay [3] (setting [4]).

With `COc1cccc(C(=O)OCC#Cc2cc(C(N)=O)c(N)c(-c3ccc(S(N)(=O)=O)cc3)c2)c1` [HPN-01216, 3-(6-amino-5-carbamoyl-4′-sulfamoyl-[1,1′-biphenyl]-3-yl)prop-2-yn-1-yl 3-methoxybenzoate], the EC50 stood at 4350 nM in assay [1] (Homo sapiens, Hepatocyte); 7930 nM in assay [2] (Homo sapiens, Hepatocyte); 960 nM in assay [3] (setting [4]).

Regarding `NCC(=O)Nc1c(C(N)=O)cc(-c2ccc(Cl)cc2)cc1-c1ccc(S(N)(=O)=O)cc1` [HPN-01504, 4′-(2-aminoacetamido)-4-chloro-4″-sulfamoyl-[1,1′:3′,1″-terphenyl]-5′-carboxamide], the EC50 in assay [1] (Homo sapiens, Hepatocyte) worked out at 730 nM; in assay [2] (Homo sapiens, Hepatocyte), 1110 nM; in assay [3] (setting [4]) it was 460 nM.

In the case of `Cc1cccc(C(=O)OCC#Cc2cc(C(N)=O)c(N)c(-c3ccc(S(N)(=O)=O)cc3)c2)c1` [HPN-01215, 3-(6-amino-5-carbamoyl-4′-sulfamoyl-[1,1′-biphenyl]-3-yl)prop-2-yn-1-yl 3-methylbenzoate], the EC50 in assay [1] (Homo sapiens, Hepatocyte) came out at 3720 nM; in assay [2] (Homo sapiens, Hepatocyte), 6780 nM; in assay [3] (setting [4]) it was 610 nM.

Regarding `NC(=O)c1cc(-c2ccc(Cl)cc2)cc(OCCc2ccc(S(N)(=O)=O)cc2)c1N` [HPN-01423, 4-amino-4′-chloro-5-(4-sulfamoylphenethoxy)-[1,1′-biphenyl]-3-carboxamide], the 50% effective concentration (EC50) in assay [1] (Homo sapiens, Hepatocyte) came out at 1360 nM; in assay [2] (Homo sapiens, Hepatocyte) it was 2370 nM; in assay [3] (setting [4]), 810 nM.

For `COc1ccc(C(=O)OCC#Cc2cc(C(N)=O)c(N)c(-c3ccc(S(N)(=O)=O)cc3)c2)cc1` [HPN-01218, 3-(6-amino-5-carbamoyl-4′-sulfamoyl-[1,1′-biphenyl]-3-yl)prop-2-yn-1-yl 4-methoxybenzoate], the 50% effective concentration (EC50) was determined as 4540 nM in assay [1] (Homo sapiens, Hepatocyte); 6510 nM in assay [2] (Homo sapiens, Hepatocyte); 990 nM in assay [3] (setting [4]).

`NC(=O)c1cc(-c2ccc(Cl)cc2)cc(-c2ccc(S(N)(=O)=O)cc2)c1NC(=O)CO` [HPN-01502, 4-chloro-4′-(2-hydroxyacetamido)-4″-sulfamoyl-[1,1′:3′,1″-terphenyl]-5′-carboxamide]: the concentration for a half-maximal effect (EC50) in assay [1] (Homo sapiens, Hepatocyte) is 1650 nM; in assay [2] (Homo sapiens, Hepatocyte) it was 2300 nM; in assay [3] (setting [4]) it was 790 nM.

As for `Nc1c(C(=O)Nc2cccnc2)cc(-c2ccc(Cl)cc2)cc1-c1ccc(S(N)(=O)=O)cc1` [HPN-01625, 4′-amino-4-chloro-N-(pyridin-3-yl)-4″-sulfamoyl-[1,1′:3′,1″-terphenyl]-5′-carboxamide], the EC50 in assay [1] (Homo sapiens, Hepatocyte) was 3320 nM; in assay [2] (Homo sapiens, Hepatocyte), 18800 nM; in assay [3] (setting [4]), 2320 nM.

Take `NC(=O)c1cc(-c2ccc(Cl)cn2)cc(-c2ccc(S(N)(=O)=O)cc2)c1N` [HPN-01308, 2-amino-5-(5-chloropyridin-2-yl)-4′-sulfamoyl-[1,1′-biphenyl]-3-carboxamide]: the EC50 was determined as 6360 nM in assay [1] (Homo sapiens, Hepatocyte); 11200 nM in assay [2] (Homo sapiens, Hepatocyte); 1900 nM in assay [3] (setting [4]).

On to `NC(=O)c1cc(Oc2cccc(Cl)c2)cc(-c2ccc(S(N)(=O)=O)cc2)c1N` [HPN-01316, 2-amino-5-(3-chlorophenoxy)-4′-sulfamoyl-[1,1′-biphenyl]-3-carboxamide], for which the 50% effective concentration (EC50) came to 8020 nM in assay [1] (Homo sapiens, Hepatocyte); 11200 nM in assay [2] (Homo sapiens, Hepatocyte); 5920 nM in assay [3] (setting [4]).

As for `Nc1c(C(=O)Nc2cccc(F)c2)cc(-c2ccc(Br)cc2)cc1-c1ccc(S(N)(=O)=O)cc1` [HPN-01614, 4′-amino-4-bromo-N-(3-fluorophenyl)-4″-sulfamoyl-[1,1′:3′,1″-terphenyl]-5′-carboxamide], the EC50 in assay [1] (Homo sapiens, Hepatocyte) turned out to be 5650 nM; in assay [2] (Homo sapiens, Hepatocyte) it was 8600 nM; in assay [3] (setting [4]), 820 nM.

Regarding `CC(=O)Oc1ccc(/C=C/c2cc(C(N)=O)c(N)c(-c3ccc(S(N)(=O)=O)cc3)c2)cc1` [HPN-01105, (E)-4-(2-(6-amino-5-carbamoyl-4′-sulfamoyl-[1,1′-biphenyl]-3-yl)vinyl)phenyl acetate], the EC50 was found to be 3240 nM in assay [1] (Homo sapiens, Hepatocyte); 5260 nM in assay [2] (Homo sapiens, Hepatocyte); 1090 nM in assay [3] (setting [4]).

With `CCCNS(=O)(=O)c1cccc(Oc2cc(-c3ccc(Cl)cc3)cc(C(N)=O)c2N)c1` [HPN-01411, 4-amino-4′-chloro-5-(3-(N-propylsulfamoyl)phenoxy)-[1,1′-biphenyl]-3-carboxamide], the EC50 was 1590 nM in assay [1] (Homo sapiens, Hepatocyte); 2840 nM in assay [2] (Homo sapiens, Hepatocyte); 940 nM in assay [3] (setting [4]).

As to “(E)-2-amino-5-(3-oxo-3-(phenylamino)prop-1-en-1-yl)-4′-sulfamoyl-[1,1′-biphenyl]-3-carboxamide [HPN-01125]”, the figures for the EC50 in assay [1], in assay [2] and in assay [3] (Huh7 cells) were 2800 nM, 4270 nM and 380 nM, respectively.

In the case of `CCCNC(=O)c1cc(-c2ccc(Cl)cc2)cc(-c2ccc(S(N)(=O)=O)cc2)c1N` [HPN-01603, 4′-amino-4-chloro-N-propyl-4″-sulfamoyl-[1,1′:3′,1″-terphenyl]-5′-carboxamide], the EC50 in assay [1] (Homo sapiens, Hepatocyte) stood at 7220 nM; in assay [2] (Homo sapiens, Hepatocyte) it was 9400 nM; in assay [3] (setting [4]) it was 2390 nM.

As to `NC(=O)c1cc(C2CCC(Br)C2)cc(-c2ccc(S(N)(=O)=O)cc2)c1N` (stereo not drawn) [HPN-01321, 2-amino-5-(3-bromocyclopentyl)-4′-sulfamoyl-[1,1′-biphenyl]-3-carboxamide], the EC50 was 3060 nM in assay [1] (Homo sapiens, Hepatocyte); 5310 nM in assay [2] (Homo sapiens, Hepatocyte); 1760 nM in assay [3] (setting [4]).

As to `NC(=O)c1cc(-c2ccc(Cl)cc2)cc(-c2ccc(-c3c[nH]nn3)cc2)c1N` [HPN-01421, 4′-amino-4-chloro-4″-(1H-1,2,3-triazol-4-yl)-[1,1′:3′,1″-terphenyl]-5′-carboxamide], the concentration for a half-maximal effect (EC50) was 1510 nM in assay [1] (Homo sapiens, Hepatocyte); 2220 nM in assay [2] (Homo sapiens, Hepatocyte); 750 nM in assay [3] (setting [4]).

On to “2-amino-5-((4-fluorophenyl)ethynyl)-4′-sulfamoylbiphenyl-3-carboxamide [HPN-01203]”, for which the EC50 came out at 1700 nM in assay [1], 2100 nM in assay [2] and 550 nM in assay [3] (Huh7 cells).

With `NC(=O)c1cc(-c2ccc(Cl)cc2)cc(OCc2ccc(S(N)(=O)=O)cc2)c1N` [HPN-01424, 4-amino-4′-chloro-5-((4-sulfamoylbenzyl)oxy)-[1,1′-biphenyl]-3-carboxamide], the EC50 in assay [1] (Homo sapiens, Hepatocyte) is 2690 nM; in assay [2] (Homo sapiens, Hepatocyte), 4310 nM; in assay [3] (setting [4]) it was 1450 nM.

For `COc1ccccc1C(=O)OCC#Cc1cc(C(N)=O)c(N)c(-c2ccc(S(N)(=O)=O)cc2)c1` [HPN-01217, 3-(6-amino-5-carbamoyl-4′-sulfamoyl-[1,1′-biphenyl]-3-yl)prop-2-yn-1-yl 2-methoxybenzoate], the concentration for a half-maximal effect (EC50) was 1030 nM in assay [1] (Homo sapiens, Hepatocyte); 2070 nM in assay [2] (Homo sapiens, Hepatocyte); 180 nM in assay [3] (setting [4]).

For `NC(=O)c1cc(-c2ccc(Cl)cc2)cc(-c2ccc(NC(N)=S)cc2)c1N` [HPN-01418, 4′-amino-4-chloro-4″-thioureido-[1,1′:3′,1″-terphenyl]-5′-carboxamide], the concentration giving a half-maximal response (EC50) in assay [1] (Homo sapiens, Hepatocyte) amounted to 2690 nM; in assay [2] (Homo sapiens, Hepatocyte) it was 2450 nM; in assay [3] (setting [4]), 980 nM.

As to `CC(=O)Oc1ccc(-c2cc(C(N)=O)c(N)c(-c3ccc(S(N)(=O)=O)cc3)c2)cc1` [HPN-01304, 4′-amino-5′-carbamoyl-4″-sulfamoyl-[1,1′:3′,1″-terphenyl]-4-yl acetate], the EC50 in assay [1] (Homo sapiens, Hepatocyte) turned out to be 1540 nM; in assay [2] (Homo sapiens, Hepatocyte), 2770 nM; in assay [3] (setting [4]), 830 nM.

Take `NC(=O)c1cc(-c2ccc(Cl)cc2)cc(Sc2cccc(S(N)(=O)=O)c2)c1N` [HPN-01414, 4-amino-4′-chloro-5-((3-sulfamoylphenyl)thio)-[1,1′-biphenyl]-3-carboxamide]: the 50% effective concentration (EC50) in assay [1] (Homo sapiens, Hepatocyte) is 3940 nM; in assay [2] (Homo sapiens, Hepatocyte), 9860 nM; in assay [3] (setting [4]), 1570 nM.

As for “4′-acetamido-4-chloro-4″-ureido-[1,1′:3′,1″-terphenyl]-5′-carboxamide [HPN-01505]”, the half-maximal effective concentration (EC50) was 1360 nM in assay [1], 2410 nM in assay [2] and 590 nM in assay [3] (Huh7 cells).

With `Cc1cccc(NC(=O)/C=C/c2cc(C(N)=O)c(N)c(-c3ccc(S(N)(=O)=O)cc3)c2)c1` [HPN-01127, (E)-2-amino-5-(3-oxo-3-(m-tolylamino)prop-1-en-1-yl)-4═-sulfamoyl-[1,1′-biphenyl]-3-carboxamide], the figures for the 50% effective concentration (EC50) in assay [1], in assay [2] and in assay [3] (Huh7 cells) were 1170 nM, 3370 nM and 330 nM, respectively.

Regarding “(E)-2-amino-5-(3-(cyclohexylamino)-3-oxoprop-1-en-1-yl)-4′-sulfamoyl-[1,1′-biphenyl]-3-carboxamide [HPN-01133]”, the 50% effective concentration (EC50) in assay [1] is 2550 nM; in assay [2], 3070 nM; in assay [3] (Huh7 cells), 700 nM.

Turning to `NC(=O)c1cc(C#CCOC(=O)c2ccccn2)cc(-c2ccc(S(N)(=O)=O)cc2)c1N` [HPN-01221, 3-(6-amino-5-carbamoyl-4′-sulfamoyl-[1,1′-biphenyl]-3-yl)prop-2-yn-1-yl picolinate], the concentration giving a half-maximal response (EC50) is 1670 nM in assay [1] (Homo sapiens, Hepatocyte); 3470 nM in assay [2] (Homo sapiens, Hepatocyte); 770 nM in assay [3] (setting [4]).
